Results from patent US7807678B2, “Peptidomimetics of biologically active metallopeptides” (Palatin Technologies, Inc., priority 2001, dated 2010).
Like-named read-outs stand apart in the source and are kept apart here. Non-standard residues stand in square brackets, D forms with d. Residues, ends and D or L forms follow the SMILES beside them. *: point of attachment. Hyp = O=C(O)[C@@H]1C[C@@H](O)CN1; Nle = CCCC[C@H](N)C(=O)O; NH(CH2)3NH2 = NCCCN*; Bn = c1ccc(C*)cc1

Legend:
[1] = target: MC5-R (Homo sapiens, UniProt P33032); assay: Competitive inhibition binding assay, 125I-NDP-α-MSH, MC5-R; parameters: expressed in transfected cells; details: 1 μM compound; inhibition of 125I-NDP-α-MSH binding; mean of triplicates; results less than 0% reported as 0%
MC5-R, sequence (P33032 whole entry): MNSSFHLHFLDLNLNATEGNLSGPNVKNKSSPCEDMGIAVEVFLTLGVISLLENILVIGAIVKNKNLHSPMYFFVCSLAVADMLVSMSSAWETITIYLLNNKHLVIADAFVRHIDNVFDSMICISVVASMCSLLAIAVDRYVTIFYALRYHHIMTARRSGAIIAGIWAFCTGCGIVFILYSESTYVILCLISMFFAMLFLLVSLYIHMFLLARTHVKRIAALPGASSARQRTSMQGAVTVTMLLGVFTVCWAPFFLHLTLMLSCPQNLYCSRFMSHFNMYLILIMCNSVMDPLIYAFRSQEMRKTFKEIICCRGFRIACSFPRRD
Summary of the method: (§1)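 Membranes from hMC3-R, hMC4-R or hMC5-R cells, or B-16 mouse melanoma cells (MC1-R), were incubated 90 min at room temperature with 0.4 nM 125I-NDP-α-MSH in HEPES pH 7.2 with Mg2+/Ca2+/K+, and test compound generally at 1 μM. Filter-bound radioactivity was gamma counted. Specific binding was defined with 1 μM α-MSH; triplicate means.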

[2] = target: T1, MC5-R (HEK-293 cells) (Homo sapiens, UniProt P33032); assay: cAMP assay for agonist/antagonist status, MC5-R; type: cell-based
T1 construct: expressed in transfected cells; host or cells: HEK-293
T1 sequence (P33032 whole entry): as above
Protocol: (§2) The Ki (nM) of certain peptidomimetics were determined, as was the agonist/antagonist status with respect to MC4-R, Functional evaluation of compounds at melanocortin receptors was performed by measuring the accumulation of intracellular cAMP in HEK-293 cells expressing MC3-R, MC4-R or MC5-R, and in B-16 mouse melanoma cells (containing MC1-R). Antagonistic activity was determined by measuring the inhibition of α-MSH-induced cAMP levels following exposure to the compounds. Cells, suspended in Earle's Balanced Salt Solution containing 10 mM HEPES, pH 7.5, 5 mM MgCl2, 1 mM glutamine, 0.1% albumin and 0.6 mM 3-isobutyl-1-methyl-xanthine, a phosphodiesterase inhibitor, were plated in 96 well plates at a density of 0.5×10^5 cells per well. Cells were incubated with the test compounds in the presence or absence of α-MSH for 1 hour at 37° C. cAMP levels were measured by EIA (Amersham) in the cell lysates. Data analysis and EC50 values were determined using nonlinear regression analysis with Prism Graph-Pad software.

[3] = target: MC3-R (Homo sapiens, UniProt P41968); assay: Competitive inhibition binding assay, 125I-NDP-α-MSH, MC3-R; parameters: expressed in transfected cells; details: 1 μM compound; inhibition of 125I-NDP-α-MSH binding; mean of triplicates; results less than 0% reported as 0%
MC3-R, sequence (P41968 whole entry): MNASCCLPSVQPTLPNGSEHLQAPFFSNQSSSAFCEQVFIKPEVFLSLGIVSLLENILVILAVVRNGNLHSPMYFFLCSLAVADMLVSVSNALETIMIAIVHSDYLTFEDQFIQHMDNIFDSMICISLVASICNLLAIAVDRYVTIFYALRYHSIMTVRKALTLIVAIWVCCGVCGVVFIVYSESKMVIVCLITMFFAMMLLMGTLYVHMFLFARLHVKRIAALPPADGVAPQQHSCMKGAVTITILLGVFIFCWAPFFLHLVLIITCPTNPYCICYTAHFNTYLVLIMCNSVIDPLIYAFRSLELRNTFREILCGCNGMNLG
Summary of the method: as §1

[4] = target: T2, MC4-R (HEK-293 cells) (Homo sapiens, UniProt P32245); assay: cAMP assay for agonist/antagonist status, MC4-R; type: cell-based
T2 construct: expressed in transfected cells; host or cells: HEK-293
T2 sequence (P32245 whole entry): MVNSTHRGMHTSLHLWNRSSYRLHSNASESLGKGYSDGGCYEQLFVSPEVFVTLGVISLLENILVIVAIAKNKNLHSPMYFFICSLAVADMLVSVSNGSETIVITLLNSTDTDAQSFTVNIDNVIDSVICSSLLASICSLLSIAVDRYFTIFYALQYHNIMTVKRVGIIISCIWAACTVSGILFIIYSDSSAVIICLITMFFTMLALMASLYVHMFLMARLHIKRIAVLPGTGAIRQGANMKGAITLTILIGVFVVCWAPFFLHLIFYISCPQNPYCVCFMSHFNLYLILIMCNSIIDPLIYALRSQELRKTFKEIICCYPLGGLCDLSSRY
Protocol: as §2

[5] = target: MC4-R (Homo sapiens, UniProt P32245); assay: Competitive inhibition binding assay, 125I-NDP-α-MSH, MC4-R; parameters: expressed in transfected cells; details: 1 μM compound; inhibition of 125I-NDP-α-MSH binding; mean of triplicates; results less than 0% reported as 0%
MC4-R, sequence (P32245 whole entry): as above
Summary of the method: as §1

[6] = target: T3, MC1-R (B-16 mouse melanoma cells) (Mus musculus, UniProt Q01727); assay: cAMP assay for agonist/antagonist status, MC1-R; type: cell-based
T3 construct: B-16 mouse melanoma cells (containing MC1-R); endogenous in cells; host or cells: B-16 mouse melanoma cells
T3 sequence (Q01727 whole entry): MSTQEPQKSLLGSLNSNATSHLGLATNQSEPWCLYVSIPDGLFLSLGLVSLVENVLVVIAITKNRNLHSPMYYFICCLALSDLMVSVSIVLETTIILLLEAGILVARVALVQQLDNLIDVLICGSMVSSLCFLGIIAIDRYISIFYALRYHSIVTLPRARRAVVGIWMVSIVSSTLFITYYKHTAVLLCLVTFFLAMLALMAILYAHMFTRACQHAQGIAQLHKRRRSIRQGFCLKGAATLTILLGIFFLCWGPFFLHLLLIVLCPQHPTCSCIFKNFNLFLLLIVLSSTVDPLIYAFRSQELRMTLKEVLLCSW
Protocol: as §2

[7] = target: T3, MC1-R (B-16 mouse melanoma cells); assay: Competitive inhibition binding assay, 125I-NDP-α-MSH, MC1-R; details: 1 μM compound; inhibition of 125I-NDP-α-MSH binding; mean of triplicates; results less than 0% reported as 0%
Summary of the method: as §1

Row | SMILES | Inhibition at 1 μM MC5-R [1] | agonist/antagonist status as to MC5-R [2] | Inhibition at 1 μM MC3-R [3] | agonist/antagonist status as to MC4-R [4] | Inhibition at 1 μM MC4-R [5] | agonist/antagonist status as to MC1-R [6] | Inhibition at 1 μM MC1-R [7] | agonist/antagonist status as to MC1-R ([6]; listed as Compound 1)
1 | NCCCC[C@H]1C(=O)N(CCc2ccc3ccccc3c2)CCN1C(=O)[C@@H](Cc1ccc(Cl)cc1Cl)NC(=O)[C@@H](N)COCc1ccccc1 [Example 22] | 76% | agonist | 47% | agonist | 98% | agonist | 40% | –
2 | NCCCC[C@H]1C(=O)N(CCc2ccc3ccccc3c2)CCN1C(=O)[C@@H](Cc1ccc(Cl)cc1Cl)NC(=O)[C@@H]1Cc2ccccc2CN1 [Example 23] | 80% | agonist | 62% | agonist | 100% | agonist | 63% | –
3 | C[C@@H](OCc1ccccc1)[C@H](N)C(=O)N[C@H](Cc1ccc(Cl)cc1Cl)C(=O)N1CCN(CCc2ccc3ccccc3c2)C(=O)[C@@H]1CCCCN [Example 24] | 78% | agonist | 34% | agonist | 99% | agonist | 30% | –
4 | NCCCC[C@H]1C(=O)N(CCc2ccc3ccccc3c2)CCN1C(=O)[C@@H](Cc1ccc(Cl)cc1Cl)NC(=O)[C@@H]1C[C@@H](OCc2ccccc2)CN1 [Example 25] | 83% | agonist | 61% | agonist | 100% | agonist | 21% | –
5 | NCCCC[C@H]1C(=O)N(CCc2ccc3ccccc3c2)CCN1C(=O)[C@@H](Cc1ccc(Cl)cc1Cl)NC(=O)[C@H]1CC[C@@H](c2ccccc2)N1 [Example 27] | 46% | agonist | 9% | agonist | 71% | agonist | 0% | –
6 | NCCCC[C@H]1C(=O)N(CCc2ccc3ccccc3c2)CCN1C(=O)[C@@H](Cc1ccc(Cl)cc1Cl)NC(=O)C/C=C/c1ccccc1 [Example 33] | 61% | agonist | 25% | antagonist | 91% | antagonist | 14% | –
7 | NCCCC[C@H]1C(=O)N(CCc2ccc3ccccc3c2)CCN1C(=O)[C@@H](Cc1ccc(Cl)cc1Cl)NC(=O)CCc1ccccc1 [Example 36] | 34% | agonist | 22% | antagonist | 92% | agonist | 72% | –
8 | NCCCC[C@H]1C(=O)N(CCc2ccc3ccccc3c2)CCN1C(=O)[C@@H](Cc1ccc(Cl)cc1Cl)NC(=O)c1ccc(Oc2ccccc2)cc1 [Example 37] | 51% | agonist | 51% | antagonist | 99% | antagonist | 35% | –
9 | NCCCC[C@H]1C(=O)N(CCc2ccc3ccccc3c2)CCN1C(=O)[C@@H](Cc1ccc(Cl)cc1Cl)NC(=O)c1cccc(Oc2ccccc2)c1 [Example 38] | 61% | agonist | 21% | antagonist | 97% | antagonist | 3% | –
10 | NCCCC[C@H]1C(=O)N(CCc2ccc3ccccc3c2)CCN1C(=O)[C@@H](Cc1ccc(Cl)cc1Cl)NCc1ccc(-c2ccccc2)cc1 [Example 39] | 9% | agonist | 4% | antagonist | 85% | antagonist | 0% | –
11 | NCCCC[C@H]1C(=O)N(CCc2ccc3ccccc3c2)CCN1C(=O)[C@@H](Cc1ccc(Cl)cc1Cl)NCCOCc1ccccc1 [Example 40] | 30% | agonist | 17% | antagonist | 91% | antagonist | 27% | –
12 | NCCCC[C@H]1C(=O)N(CCc2ccc3ccccc3c2)CCN1C(=O)[C@@H](Cc1ccc(Cl)cc1Cl)NCc1ccc2ccccc2c1 [Example 41] | 2% | agonist | 4% | antagonist | 84% | antagonist | 4% | –
13 | NC(=O)NCCC[C@H]1C(=O)N(CCc2ccc3ccccc3c2)CCN1C(=O)[C@@H](Cc1ccc(Cl)cc1Cl)NC(=O)[C@@H](N)COCc1ccccc1 [Example 44] | 66% | agonist | 43% | agonist | 94% | agonist | 8% | –
14 | N=C(N)NCCC[C@H]1C(=O)N(CCc2ccc3ccccc3c2)CCN1C(=O)[C@H](N)Cc1ccc(Cl)cc1Cl [Example 51] | 35% | agonist | 47% | agonist | 95% | antagonist | 22% | –
15 | NCCC[C@H]1C(=O)N(CCc2ccc3ccccc3c2)CCN1C(=O)[C@@H](Cc1ccc(Cl)cc1Cl)NC(=O)[C@@H](N)COCc1ccccc1 [Example 52] | 63% | agonist | 25% | agonist | 94% | agonist | 36% | –
16 | CCCC[C@H](NC(C)=O)C(=O)N[C@@H](C)C(=O)N[C@@H](Cc1cnc[nH]1)C(=O)N[C@H](Cc1ccccc1)C(=O)N1C[C@H](OCc2ccccc2)C[C@H]1C(=O)NCCCN [Example 133] (Ac-[Nle]AH[dF][Hyp](Bn)-{NH(CH2)3NH2}) | 25% | – | 13% | – | 8% | agonist | 91% | full agonistic activity
